Experimental data published in PubChem BioAssay AID1259407 (Chemical Carcinogenesis Research Information System (CCRIS), 2018).
Activity calls are given as the source filed them. The rule behind the calls is not given here.

System: CCRIS mutagenicity, Ames/micronucleus/aberration tests
Experiment: CCRIS mutagenicity studies
[1] = Test System: AMES SALMONELLA TYPHIMURIUM, Strain/Indicator: TA98, Metabolic Activation: NONE, Method: PREINCUBATION
[2] = Test System: AMES SALMONELLA TYPHIMURIUM, Strain/Indicator: TA100, Metabolic Activation: NONE, Method: PREINCUBATION

Nc1ccc(Cl)cc1[N+](=O)[O-]
mutagenic call (End Point: IN VITRO CHROMOSOMAL ABERRATIONS, Test System: CHINESE HAMSTER OVARY CELLS, Metabolic Activation: NONE): inactive; negative; precipitation occurred at 252 ug/ml
mutagenic call (End Point: IN VITRO CHROMOSOMAL ABERRATIONS, Test System: CHINESE HAMSTER OVARY CELLS, Metabolic Activation: RAT, LIVER, S-9, AROCLOR 1254): active; positive; precipitation occurred at all doses
mutagenic call (Test System: AMES SALMONELLA TYPHIMURIUM, Strain/Indicator: TA98(NR), Metabolic Activation: NONE, Method: STANDARD PLATE): inactive; negative
mutagenic call [1]: inactive; negative
mutagenic call (Test System: AMES SALMONELLA TYPHIMURIUM, Strain/Indicator: TA98, Metabolic Activation: RAT, LIVER, S-9, KANECHLOR 500, Method: PREINCUBATION): active; positive
mutagenic call [2]: inactive; negative
mutagenic call (Test System: AMES SALMONELLA TYPHIMURIUM, Strain/Indicator: TA1538, Metabolic Activation: NONE, Method: STANDARD PLATE): active; positive
mutagenic call (Test System: AMES SALMONELLA TYPHIMURIUM, Strain/Indicator: TA1538, Metabolic Activation: RAT, LIVER, S-9, AROCLOR 1254, Method: STANDARD PLATE): active; positive
mutagenic call (Test System: AMES SALMONELLA TYPHIMURIUM, Strain/Indicator: YG1020, Metabolic Activation: NONE, Method: STANDARD PLATE): active; positive
mutagenic call (Test System: AMES SALMONELLA TYPHIMURIUM, Strain/Indicator: YG1021, Metabolic Activation: NONE, Method: STANDARD PLATE): active; positive
mutagenic call (Test System: AMES SALMONELLA TYPHIMURIUM, Strain/Indicator: YG1024, Metabolic Activation: NONE, Method: STANDARD PLATE): active; positive

O=C1C(c2[nH]c3ccc(S(=O)(=O)O)cc3c2O)=Nc2ccc(S(=O)(=O)O)cc21
mutagenic call [1]: inactive; negative
mutagenic call (Test System: AMES SALMONELLA TYPHIMURIUM, Strain/Indicator: TA98, Metabolic Activation: S-9, Method: PREINCUBATION): inactive; negative
mutagenic call [2]: inactive; negative
mutagenic call (Test System: AMES SALMONELLA TYPHIMURIUM, Strain/Indicator: TA100, Metabolic Activation: S-9, Method: PREINCUBATION): inactive; negative
mutagenic call (Test System: Mouse lymphoma, Strain/Indicator: L5178Y (tk+/tk-), Metabolic Activation: None, Method: Suspension/plate): inactive; negative
mutagenic call (Test System: Mouse lymphoma, Strain/Indicator: L5178Y (tk+/tk-), Metabolic Activation: Rat, liver, S-9, Aroclor 1254, Method: Suspension/plate): active; positive

BrCC(Br)CBr
mutagenic call (Test System: AMES SALMONELLA TYPHIMURIUM, Strain/Indicator: TA100, Metabolic Activation: RAT, LIVER, MICROSOMES, PHENOBARBITAL, NADPH COFACTORS, Method: STANDARD PLATE): active; positive
mutagenic call (Test System: AMES SALMONELLA TYPHIMURIUM, Strain/Indicator: TA100, Metabolic Activation: RAT, LIVER, MICROSOMES, PHENOBARBITAL, Method: STANDARD PLATE): inactive; negative

O=[N+]([O-])c1ccc2ccc3c4c(cc5ccc1c2c53)C=C[C@H](O)[C@H]4O
mutagenic call (Test System: AMES SALMONELLA TYPHIMURIUM, Strain/Indicator: TA98, Metabolic Activation: NONE): active; positive
mutagenic call (Test System: AMES SALMONELLA TYPHIMURIUM, Strain/Indicator: TA98, Metabolic Activation: RAT, LIVER, S-9, AROCLOR 1254): active; positive
mutagenic call (Test System: CHINESE HAMSTER OVARY, Strain/Indicator: CHO-K1-BH4 (HGPRT), Metabolic Activation: NONE): inactive; negative
mutagenic call (Test System: CHINESE HAMSTER OVARY, Strain/Indicator: CHO-K1-BH4 (HGPRT), Metabolic Activation: RAT, LIVER, S-9, 3-METHYLCHOLANTHRENE): inactive; negative

C1CC[CH]([Sn]([CH]2CCCCC2)[CH]2CCCCC2)CC1
mutagenic call (Test System: UDS HUMAN PERIPHERAL BLOOD LYMPHOCYTES, Strain/Indicator: THY INCORP, Metabolic Activation: NONE, Method: LIQUID SCINTILLATION): inactive; negative
mutagenic call (Test System: UDS HUMAN PERIPHERAL BLOOD LYMPHOCYTES, Strain/Indicator: THY INCORP, Metabolic Activation: RAT, LIVER, S-9, PHENOBARBITAL AND BETA-NAPHTHOFLAVONE, Method: LIQUID SCINTILLATION): inactive; negative

COC(=O)C12OC1(C)C(C(C)C)OC2=O (centres undefined)
mutagenic call (Test System: AMES SALMONELLA TYPHIMURIUM, Strain/Indicator: TA98, Metabolic Activation: NONE, Method: DISK ASSAY): active; positive
mutagenic call (Test System: AMES SALMONELLA TYPHIMURIUM, Strain/Indicator: TA98, Metabolic Activation: NONE, Method: STANDARD PLATE): active; positive
mutagenic call (Test System: AMES SALMONELLA TYPHIMURIUM, Strain/Indicator: TA98, Metabolic Activation: RAT, LIVER, S-9, AROCLOR 1254, Method: DISK ASSAY): active; positive
mutagenic call (Test System: AMES SALMONELLA TYPHIMURIUM, Strain/Indicator: TA98, Metabolic Activation: RAT, LIVER, S-9, AROCLOR 1254, Method: STANDARD PLATE): active; positive
mutagenic call (Test System: AMES SALMONELLA TYPHIMURIUM, Strain/Indicator: TA100, Metabolic Activation: NONE, Method: STANDARD PLATE): inactive; negative
mutagenic call (Test System: AMES SALMONELLA TYPHIMURIUM, Strain/Indicator: TA100, Metabolic Activation: RAT, LIVER, S-9, AROCLOR 1254, Method: STANDARD PLATE): active; positive

CC(=O)CCCCn1c(=O)c2c(ncn2C)n(C)c1=O
mutagenic call (End Point: IN VITRO CHROMOSOMAL ABERRATIONS, Test System: HUMAN PERIPHERAL BLOOD LYMPHOCYTES, Metabolic Activation: NONE): active; positive (structural changes)
mutagenic call (End Point: IN VITRO CHROMOSOMAL ABERRATIONS, Test System: V79 CELLS, Metabolic Activation: NONE): active; positive (structural changes)
mutagenic call (End Point: IN VITRO MICRONUCLEUS, Test System: HUMAN PERIPHERAL BLOOD LYMPHOCYTES, Metabolic Activation: NONE): active; positive
mutagenic call (End Point: IN VITRO MICRONUCLEUS, Test System: V79 CELLS, Metabolic Activation: NONE): active; positive
mutagenic call (Test System: CHINESE HAMSTER V-79, Strain/Indicator: V-79 (HGPRT)/6-THIOGUANINE, Metabolic Activation: NONE): inactive; negative
mutagenic call (Test System: CHINESE HAMSTER V-79, Strain/Indicator: V-79 (HGPRT)/6-THIOGUANINE, Metabolic Activation: S-9): inactive; negative

CCOC(/C=C(\C)CCC=C(C)C)OCC
mutagenic call (Test System: AMES SALMONELLA TYPHIMURIUM, Strain/Indicator: TA97, Metabolic Activation: HAMSTER, LIVER, S-9, AROCLOR 1254 (10%), Method: PREINCUBATION): inactive; negative
mutagenic call (Test System: AMES SALMONELLA TYPHIMURIUM, Strain/Indicator: TA97, Metabolic Activation: NONE, Method: PREINCUBATION): inactive; negative
mutagenic call (Test System: AMES SALMONELLA TYPHIMURIUM, Strain/Indicator: TA97, Metabolic Activation: RAT, LIVER, S-9, AROCLOR 1254 (10%), Method: PREINCUBATION): inactive; negative
mutagenic call (Test System: AMES SALMONELLA TYPHIMURIUM, Strain/Indicator: TA98, Metabolic Activation: HAMSTER, LIVER, S-9, AROCLOR 1254 (10%), Method: PREINCUBATION): inactive; negative
mutagenic call [1]: inactive; negative
mutagenic call (Test System: AMES SALMONELLA TYPHIMURIUM, Strain/Indicator: TA98, Metabolic Activation: RAT, LIVER, S-9, AROCLOR 1254 (10%), Method: PREINCUBATION): inactive; negative
mutagenic call (Test System: AMES SALMONELLA TYPHIMURIUM, Strain/Indicator: TA100, Metabolic Activation: HAMSTER, LIVER, S-9, AROCLOR 1254 (10%), Method: PREINCUBATION): inactive; negative
mutagenic call [2]: inactive; negative
mutagenic call (Test System: AMES SALMONELLA TYPHIMURIUM, Strain/Indicator: TA100, Metabolic Activation: RAT, LIVER, S-9, AROCLOR 1254 (10%), Method: PREINCUBATION): inactive; negative
mutagenic call (Test System: AMES SALMONELLA TYPHIMURIUM, Strain/Indicator: TA1535, Metabolic Activation: HAMSTER, LIVER, S-9, AROCLOR 1254 (10%), Method: PREINCUBATION): active; positive
mutagenic call (Test System: AMES SALMONELLA TYPHIMURIUM, Strain/Indicator: TA1535, Metabolic Activation: NONE, Method: PREINCUBATION): inactive; negative
mutagenic call (Test System: AMES SALMONELLA TYPHIMURIUM, Strain/Indicator: TA1535, Metabolic Activation: RAT, LIVER, S-9, AROCLOR 1254 (10%), Method: PREINCUBATION): active; positive
